In US20220282285A1, “GENETICALLY-EDITED IMMUNE CELLS AND METHODS OF THERAPY” (REGENTS OF THE UNIVERSITY OF MINNESOTA, priority 2019, published 2022):
Entries after “also recorded” stand apart in the source; their conditions may differ.

Experiments:
T cells = test: Viable cell count and percentage of viable cells post-electroporation with supplements; assay type: cell-based; settings: day 7 post-electroporation; NAC 10 mM for duration, anti-IFNAR2 antibody once at 10 μg/ml
Method: This example examined the effects of treatment with NAC, Akt VIII inhibitor, or anti-IFNAR2, on post-electroporation T cell survival as well as transfection efficiency. In these experiments, 2×10^6 cells in 100 μl were electroporated non-sequentially at 36 hr post-stimulation. After electroporation, the cells were recovered for 15 min, and then split equally among 5 different supplement conditions, as listed in Table 5. NAC was added to the medium at 10 mM for duration, Akt VIII inhibitor at 8 μM for duration, and anti-IFNAR2 antibody was added to the media once at 10 μg/ml. “Nuc” in Table 2 and FIGS. 22A-22D denotes the condition where exogenous DNA was added to be inserted into cell genome at 20 μg (“+20 μg), 35 μg (“+35 μg), or 50 μg (“+50 μg”).
FIG. 23A-FIG. 23C show graphs of viable cell count in each condition on day 2, 5, and 7 post-electroporation, respectively. FIG. 23D-FIG. 23F show graphs of percentage of viable cells in each condition on day 2, 5, and 7 post-electroporation, respectively.

primary T cells = test: Transfection efficiency: GFP or mTCR transgene expression by FACs on day 7 / day 14 post electroporation; assay type: cell-based, human; settings: for stable transgene expression (percent GFP or mTCR): 14 days post-transfection, electroporated on day 0 or day 1 post stimulation (FIG. 18); for transgene expression (day 7 percent GFP or mTCR expression): T cells electroporated on day 0 or day 1 post stimulation (FIG. 17); for transgene expression (percent GFP+ or mTCR+ cells): day 14 post electroporation of plasmid donor on day 0 or day 1, Cas9, gRNA (FIG. 16)
Method: Electroporated T cells are analyzed by flow cytometry ˜24-48 hours after transfection to test for expression of GFP or other fluorochrome (marker for transgene expression). For knockout experiments, analysis for loss of target protein is conducted between 7-9 days post transfection. For knock-in experiments, measure marker expression on day 7 and day 14. Cells are prepared by washing with chilled 1×PBS with 0.5% FBS and stain according to manufacturer recommendations for each antibody.
Transfection efficiency was also assessed by examining the stable expression of the transgenes introduced by the plasmids. FIG. 15C is a graph showing percentage of GFP-expressing cells in each group of cells, and FIG. 15D is a graph showing percentage of mTCR-expressing cells in each group of cells. In these experiments, the primary T cells were transfected through electroporation with plasmid donor expressing GFP or mTCR on day 0 or 1, FACs was performed to examine the transgene expression on day 14 post electroporation.
This example examined the effects of treatment of electroporated T cells with DNase, RS-1, or both DNase and RS-1, on transfection efficiency. Primary T cells were transfected through electroporation with plasmid donor expressing GFP or mTCR on day 0 or 1, FACs was performed to examine the transgene expression on day 14 post electroporation.
FIGS. 17A-17D are FACs density plots of T cells on day 7 post electroporation.
FIGS. 18A-18B are FACs density plots of T cells on day 14 post electroporation.

[1] = test system: T cells from donors 055330, 119866, 120534; test: FACs analysis of electroporation efficiency (mTCR), single or sequential electroporation; assay type: cell-based, human
activated T cell culture = test: Cell clumping / T cell survival 24 hours following electroporation with plasmid donor vector; assay type: cell-based, human; settings: DNase in culture medium vs none
Method: • (a) Stimulated T cells are electroporated using the Neon Transfection System (100 uL or 10 ul Kit, Invitrogen, Life Technologies). • (b) Pellet cells and wash once with PBS or T buffer. • (c) Resuspend cells at a density of […] in 10 uL of T buffer for 10 ul tip, and 1×10^6 cells in 100 ul T buffer for 100 ul tips. • (d) Add specified mass of mRNA/DNA and electroporated at 1400 V, 10 ms, 3 pulses. • a. For knockout using all mRNA: • i. 100 ul tip: 15 ug Cas9 mRNA, 10 ug gRNA-RNA • ii. 10 ul tip: 1.5 ug Cas9 mRNA, 1 ug gRNA-RNA • b. When including plasmid donor for knock-in: • i. 100 ul tip: 5-20 ug plasmid • ii. 10 ul tip: 0.5-2 ug plasmid • c. For sequential electroporations: • On 0 hr timepoint deliver the amount of Cas9 specified in “a” • ii. At time point 0 hr and 6-24 hr, deliver gRNA and plasmid together in amounts specified in “a” and “b”. • (e) After transfection, plate cells at 3000 cells/ul in antibiotic free culture media containing 10 ug/ml DNase I and incubate at 37° C. in 5% CO2 for ˜20 minutes. • (f) After recovery period, add 2 times volume of antibiotic containing media to well and culture at 37° C. in 5% CO2. rAAV Transduction of CD3+ T Cells • (a) Thaw rAAV on ice and mix well prior to addition to cells. • (b) Add specified MOI at the following timepoints post-electroporation • a. For Cas9 mRNA edited cells: • i. Add virus 4-6 hours post • b. […]

Primary human T cells = test: Percent recovery of viable transfected cells 24 hr post electroporation by flow cytometry; assay type: cell-based; settings: for percent recovery of the transfected cells: 24 hr post electroporation, DNase 10 μg/ml in recovery media
Method: This example examined the effect of DNase on post-electroporation T cell survival as well as transfection efficiency. Primary human T cells were cultured and stimulated with IL-2, IL-7, and IL-15. Later the T cells were either pulsed (control) or transfected with 1.5 μg of pMND-GFP plasmid (about 7.5 kb) at 36 hr or 48 hr post-stimulation. For comparison, DNase was added to recovery media of one group of transfected cells at 10 μg/ml. Cells were incubated in this recovery media following electroporation for 30 min. And after recovery, 2 times volume of complete media was added without any wash step (therefore diluted DNase remained in the media).
Cells were analyzed 24 hr post electroporation by flow cytometry to determine the percentage of recovered viable cells, as shown in FIG. 15A. FIG. 15B is a graph showing the percent recovery of the transfected cells in each group. DNase increased percent recovery in both “36 hr pMND-GFP” group, where cells were transfected with pMND-GFP plasmid at 36 hr post-stimulation, and “48 hr pMND-GFP” group, where cells were transfected with pMND-GFP at 48 hr post-stimulation.

[2] = donor 055330, 36 hours post stimulation or 36 hours post stimulation and 6 hours post initial electroporation
[3] = donor 119866, 36 hours post stimulation or 36 hours post stimulation and 6 hours post initial electroporation
[4] = donors 055330 and 119866 at 24 hours post initial electroporation, donor 120534 at 36 hours post stimulation or plus 6 hours (FIG. 21)
[5] = T cells transfected on day 1, day 14 post electroporation, plasmid donor, Cas9, gRNA
[6] = day 14 post electroporation of plasmid donor on day 0 or 1, with vs without DNase

| Compound | cell viability (T cells) | stable transgene expression (percent GFP or mTCR) (primary T cells) | transgene expression (day 7 percent GFP or mTCR expression) (primary T cells) | transgene expression (percent GFP+ or mTCR+ cells) (primary T cells) | transgene (mTCR) expression, electroporation efficiency [1, 2] | transgene (mTCR) expression, electroporation efficiency [1, 3] | transgene (mTCR) expression, electroporation efficiency [1, 4] | cell clumping and floating dead cells (activated T cell culture) | lymphocyte survival after transfection (Primary human T cells; 24 hours post-electroporation of a plasmid, culture with vs without DNase) | percent recovery of the transfected cells (Primary human T cells; pMND-GFP plasmid at 36 hr post-stimulation) | percent recovery of the transfected cells (Primary human T cells; pMND-GFP plasmid at 48 hr post-stimulation) | GFP expression (percentage of GFP+ cells) (primary T cells; [5]) | mTCR expression (percentage of mTCR+ cells) (primary T cells; [5]) | integration efficiency, percentage of GFP-expressing cells (primary T cells; [6]) | integration efficiency, percentage of mTCR-expressing cells (primary T cells; [6]) |
| --- | --- | --- | --- | --- | --- | --- | --- | --- | --- | --- | --- | --- | --- | --- | --- |
| CC(=O)N[C@@H](CS)C(=O)O [NAC, N-acetyl-cysteine] | increased | – | – | – | – | – | – | – | – | – | – | – | – | – | – |
| O=C(Nc1ccc(Br)cc1)c1ccc(Br)c(S(=O)(=O)NCc2ccccc2)c1 [RS-1, 3-((benzylamino)sulfonyl)-4-bromo-N-(4-bromophenyl)benzamide] | – | increased | increased | increased | increased | increased | increased | – | – | – | – | – | – | – | – |
| DNase | – | increased | increased | increased | increased | increased | increased | no cell clumps were visible; also recorded: did not show cell clumping or floating cell corpses | increased | increased | increased | promoted | promoted | increased | increased |
